From US9351983B2, “Use of glycerophosphoinositols for the treatment of septic shock” (CONSIGLIO NAZIONALE DELLE RICERCHE, priority 2012, dated 2016)

Key:
[1] = tested on: LPS-mediated gene transcription of IL-1β; test: Real-time RT-PCR of IL-1β mRNA in LPS-stimulated monocytes; type: cell-based, human; conditions: 300 μM, 0.1 μg/ml LPS for 1.5 h or 24 h
Description: FIG. 4—The glycerophosphoinositols inhibit LPS-mediated gene transcription of TNFα, IL-1β and COX-2. Human monocytes were purified from peripheral blood and incubated at 37° C. for 20 min without or with 300 μM GroPIns or GroPIns4P, and for an additional 1.5 h or 24 h in the absence and presence of 0.1 μg/ml LPS from E. coli. At each time point, RNA was extracted and converted to cDNA for real-time PCR analysis of TNFα, IL-1β and COX-2. Each sample was measured in triplicate and the data were calculated using the delta-delta method (2-DDCT). Transcription of the house-keeping gene GAPDH was used to normalise the data. Measurements of mRNA levels were expressed as fold-increase over the respective control (unstimulated) cells, and are means (±SD) of triplicates from one representative experiment of 4 experiments performed with cells from different donors. Asterisks indicate statistically significant differences (*p<0.0485; **p<0.0092).
(§1) One μg total RNA (extracted through thiocyanate/caesium chloride method) was converted to cDNA using Moloney murine leukaemia virus reverse transcriptase (Applied Biosystems, Italy). […] Each sample was measured in triplicate and the data were analysed with the SDS 2.0 software (Applied Biosystems, Italy) by the delta-delta method (2-DDCT) for comparing relative expression results. […]

[2] = tested on: LPS-induced tissue-factor gene expression; test: Real-time RT-PCR of tissue factor mRNA in LPS-stimulated monocytes; type: cell-based, human; conditions: 300 μM, 0.1 μg/ml LPS for 24 h (chronic)
Description: FIG. 3—The glycerophosphoinositols inhibit LPS-induced tissue-factor gene expression. Freshly isolated human monocytes were incubated at 37° C. for 20 min without or with 300 μM GroPIns or GroPIns4P, and for a further 1.5 h or 24 h in the absence and presence of 0.1 μg/ml LPS. At each time point, the total RNA was extracted from cells by the thiocyanate/caesium chloride method and converted to cDNA. Real-time PCR measurements of tissue factor were performed using validated primers. GAPDH served as the house-keeping gene. Each sample was measured in triplicate and the data were calculated with the delta-delta method (2-DDCT) for comparing relative expression data. Monocytes incubated alone for different times were considered the control sample. Measurements of mRNA levels were expressed as fold-increase over control, and are means (±SD) of triplicates from one experiment that is representative of 4 experiments performed with cells from different donors (*p=0.016; **p=0.0052). […]
as §1

[3] = tested on: Interleukin 1β (IL-1β); test: In vitro model of human inflammation: ELISA of IL-1β in supernatants; type: cell-based; conditions: 300 μM; full inflammation (4 h and 14 h); one donor
Description: (§2) FIG. 16—Glycerophosphoinositol inhibits the release of cytokines. Human monocytes were purified from one donor and treated according to the in vitro model of human inflammation, previously described, in absence (blue line) or in presence (red line) of 300 μM glycerophosphoinositol. In detail, glycerophosphoinositol was added to cultured cells 20 minutes before LPS, IL-10 and TGF-β, that is, again after each wash. The growth medium was collected at time 4 h, 14 h, 24 h, 48 h; growth medium from freshly isolated monocytes was considered as control at time 0 h. The levels of cytokines Interleukin 1β (IL-1β), Tumor necrosis factor α (TNFα) and Interleukin-6 (IL-6) in the supernatants were measured by enzyme-linked immunosorbent assay (ELISA kit, R&D System) according to manufacturer's protocol. An increased release of these cytokines was observed during the full inflammation (time 4 h and 14 h) as expected. […]
(§3) Extracellular levels of IL-1β, TNFα and IL-6 were measured by enzyme-linked immunosorbent assay (ELISA) from R&D System. […] Then the recovered supernatants were loaded onto plates according to manufacturer's protocol and the concentration of the protein was assessed spectrophotometrically.

[4] = tested on: Tumor necrosis factor α (TNFα); test: In vitro model of human inflammation: ELISA of TNFα in supernatants; type: cell-based; conditions: 300 μM; full inflammation (4 h and 14 h); one donor
Description: as §2, §3

[5] = tested on: Interleukin-6 (IL-6); test: In vitro model of human inflammation: ELISA of IL-6 in supernatants; type: cell-based; conditions: 300 μM; full inflammation (4 h and 14 h); one donor
Description: as §2, §3

O=P(O)(O)OC1[C@@H](O)[C@H](O)C(OP(=O)(O)OCC(O)CO)[C@@H](O)[C@H]1O (stereo partly shown) [GroPIns4P, glycerophosphoinositol 4-phosphate]
effect on LPS-induced IL-1β mRNA expression [1]: inhibited the effects of LPS on expression of all of the genes analysed | inhibition of LPS-induced tissue factor mRNA levels [2]: completely ineffective

O=P(O)(OCC(O)CO)OC1C(O)C(O)C(O)C(O)C1O (stereo not shown) [GroPIns, glycerophosphoinositol]
amount of IL-1β in the supernatants [3]: significantly reduced the amount of these cytokines in the supernatants | effect on LPS-induced IL-1β mRNA expression [1]: inhibited the effects of LPS on expression of all of the genes analysed | amount of TNFα in the supernatants [4]: significantly reduced the amount of these cytokines in the supernatants | amount of IL-6 in the supernatants [5]: significantly reduced the amount of these cytokines in the supernatants | inhibition of LPS-induced tissue factor mRNA levels [2]: ~60%
